{
  "source": "patent US20100310668A1",
  "about": "“PHARMACEUTICAL COMPOSITIONS COMPRISING N-[2-(DIETHYLAMINO)ETHYL]-5-[(5-FLUORO-1,2-DIHYDRO-2-OXO-3H-INDOL-3-YLIDENE)METHYL]-2,4-DIMETHYL-1H-PYRROLE-3-CARBOXAMIDE” (ratiopharm GmbH, priority 2008, published 2010)",
  "origin": "cited, not measured here",
  "conditions": "solid (crystalline) form obtained by known manufacturing processes",
  "data": [
    {"smiles": "CCN(CC)CCNC(=O)c1c(C)[nH]c(/C=C2\\C(=O)Nc3ccc(F)cc32)c1C", "note": "[compound I, N-[2-(diethylamino)ethyl]-5-[(5-fluoro-1,2-dihydro-2-oxo-3H-indol-3-ylidene)methyl]-2,4-dimethyl-1H-pyrrole-3-carboxamide]", "values": [
      {"measurement": "solubility in water", "value": "poor"}
    ]}
  ]
}
